Key:
Hepatotoxicity [1] = system: Hepatotoxicity;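 as to HepSE cholecystitis: Cholecystitis-related hepatic side effect score drawn from the DILIps (drug-induced liver injury prediction) training data set; call rule not given here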;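 as to HepSE cirrhosis: cirrhosis hepatic side effect score taken from the DILIps (drug-induced liver injury prediction) training set; call rule not given here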; as to HepSE hepatic failure: call rule not given here;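 as to HepSE hepatitis: Hepatitis-related hepatic side effect score taken from the training data of DILIps, a prediction system for drug-induced liver injury; call rule not given here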;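 as to HepSE jaundice: Jaundice-related hepatic side-effect score drawn from the training data of the DILIps (drug-induced liver injury prediction system); call rule not given here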; as to HepSE liver disease: call rule not given here;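 as to HepSE liver function tests abnormal: hepatic side effect score taken from the DILIps (drug-induced liver injury prediction system) training data, here covering abnormal liver function test findings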
Hepatotoxicity [2] = system: Hepatotoxicity; remark: listed apart in the source;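 as to HepSE cholecystitis: Cholecystitis-related hepatic side effect score drawn from the DILIps (drug-induced liver injury prediction) training data set; call rule not given here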;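 as to HepSE cirrhosis: cirrhosis hepatic side effect score taken from the DILIps (drug-induced liver injury prediction) training set; call rule not given here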; as to HepSE hepatic failure: call rule not given here;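 as to HepSE hepatitis: Hepatitis-related hepatic side effect score taken from the training data of DILIps, a prediction system for drug-induced liver injury; call rule not given here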;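 as to HepSE jaundice: Jaundice-related hepatic side-effect score drawn from the training data of the DILIps (drug-induced liver injury prediction system); call rule not given here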; as to HepSE liver disease: call rule not given here;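 as to HepSE liver function tests abnormal: hepatic side effect score taken from the DILIps (drug-induced liver injury prediction system) training data, here covering abnormal liver function test findings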
Hepatotoxicity [3] = system: Hepatotoxicity; remark: listed apart in the source;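 as to HepSE cholecystitis: Cholecystitis-related hepatic side effect score drawn from the DILIps (drug-induced liver injury prediction) training data set; call rule not given here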;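 as to HepSE cirrhosis: cirrhosis hepatic side effect score taken from the DILIps (drug-induced liver injury prediction) training set; call rule not given here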; as to HepSE hepatic failure: call rule not given here;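 as to HepSE hepatitis: Hepatitis-related hepatic side effect score taken from the training data of DILIps, a prediction system for drug-induced liver injury; call rule not given here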;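 as to HepSE jaundice: Jaundice-related hepatic side-effect score drawn from the training data of the DILIps (drug-induced liver injury prediction system); call rule not given here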; as to HepSE liver disease: call rule not given here;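 as to HepSE liver function tests abnormal: hepatic side effect score taken from the DILIps (drug-induced liver injury prediction system) training data, here covering abnormal liver function test findings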
Hepatotoxicity [4] = system: Hepatotoxicity; remark: listed apart in the source;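 as to HepSE cholecystitis: Cholecystitis-related hepatic side effect score drawn from the DILIps (drug-induced liver injury prediction) training data set; call rule not given here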; as to HepSE hepatic failure: call rule not given here;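 as to HepSE hepatitis: Hepatitis-related hepatic side effect score taken from the training data of DILIps, a prediction system for drug-induced liver injury; call rule not given here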;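 as to HepSE jaundice: Jaundice-related hepatic side-effect score drawn from the training data of the DILIps (drug-induced liver injury prediction system); call rule not given here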; as to HepSE liver disease: call rule not given here;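 as to HepSE liver function tests abnormal: hepatic side effect score taken from the DILIps (drug-induced liver injury prediction system) training data, here covering abnormal liver function test findings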
Hepatotoxicity [5] = system: Hepatotoxicity; remark: listed apart in the source; as to HepSE hepatic failure: call rule not given here; as to HepSE liver disease: call rule not given here
Hepatotoxicity [6] = system: Hepatotoxicity; remark: listed apart in the source; as to HepSE hepatic failure: call rule not given here; as to HepSE liver disease: call rule not given here
Hepatotoxicity [7] = system: Hepatotoxicity; remark: listed apart in the source
Hepatotoxicity [8] = system: Hepatotoxicity; remark: listed apart in the source
Hepatotoxicity [9] = system: Hepatotoxicity; remark: listed apart in the source
Hepatotoxicity [10] = system: Hepatotoxicity; remark: listed apart in the source
Hepatotoxicity [11] = system: Hepatotoxicity; remark: listed apart in the source
Hepatotoxicity [12] = system: Hepatotoxicity; remark: listed apart in the source
Hepatotoxicity [13] = system: Hepatotoxicity; remark: listed apart in the source
Hepatotoxicity [14] = system: Hepatotoxicity; remark: listed apart in the source

| Structure (SMILES) | HepSE_cholecystitis (Hepatotoxicity [1]) | HepSE_liver disease (Hepatotoxicity [2]) | HepSE_hepatic failure (Hepatotoxicity [3]) | HepSE_liver function tests abnormal (Hepatotoxicity [4]) | HepSE_jaundice (Hepatotoxicity [5]) | HepSE_hepatitis (Hepatotoxicity [6]) | HepSE_cirrhosis (Hepatotoxicity [7]) | HepSE_bilirubinemia (Hepatotoxicity [8]) | HepSE_hepatic necrosis (Hepatotoxicity [9]) | HepSE_hepatomegaly (Hepatotoxicity [10]) | HepSE_elevated liver function tests (Hepatotoxicity [11]) | HepSE_liver fatty (Hepatotoxicity [12]) | HepSE_Combined Scores (Hepatotoxicity [13]) | HepSE_cholelithiasis (Hepatotoxicity [14]) | HepSE_cholecystitis (Hepatotoxicity [1]; Liver) | HepSE_liver disease (Hepatotoxicity [2]; Liver) | HepSE_hepatic failure (Hepatotoxicity [3]; Liver) | HepSE_liver function tests abnormal (Hepatotoxicity [4]; Liver) | HepSE_jaundice (Hepatotoxicity [5]; Liver) | HepSE_hepatitis (Hepatotoxicity [6]; Liver) | other results |
| --- | --- | --- | --- | --- | --- | --- | --- | --- | --- | --- | --- | --- | --- | --- | --- | --- | --- | --- | --- | --- | --- |
| NCCCC(N)(C(=O)O)C(F)F (configuration not stated) [EFLORNITHINE] | 0 | 0 | 0 | 0 | 0 | 0 | 0 | 0 | 0 | 0 | 0 | 0 | 0 | 0 |  |  |  |  |  |  |  |
| CCOCCn1c(N2CCCN(C)CC2)nc2ccccc21 [EMEDASTINE] | 0 | 0 | 0 | 0 | 0 | 0 | 0 | 0 | 0 | 0 | 0 | 0 | 0 | 0 |  |  |  |  |  |  |  |
| Nc1nc(=O)n([C@@H]2CS[C@H](CO)O2)cc1F [EMTRICITABINE] |  |  |  |  |  |  |  |  |  |  |  |  |  |  | 0 | 0 | 0 | 0 | 0 | 0 | HepSE_cirrhosis (Hepatotoxicity [7]; Liver): 0; HepSE_bilirubinemia (Hepatotoxicity [8]; Liver): 0; HepSE_hepatic necrosis (Hepatotoxicity [9]; Liver): 0; HepSE_hepatomegaly (Hepatotoxicity [10]; Liver): 0; HepSE_elevated liver function tests (Hepatotoxicity [11]; Liver): 0; HepSE_liver fatty (Hepatotoxicity [12]; Liver): 0; HepSE_Combined Scores (Hepatotoxicity [13]; Liver): 0; HepSE_cholelithiasis (Hepatotoxicity [14]; Liver): 0 |
| COc1ccc(C(=O)Nc2ccccc2CCC2CCCCN2C)cc1 (configuration not stated) [ENCAINIDE] | 0 | 0 | 0 | 0 | 1 | 1 | 0 | 0 | 0 | 0 | 0 | 0 | 2 | 0 |  |  |  |  |  |  |  |
| CCN(CC)C(=O)/C(C#N)=C/c1cc(O)c(O)c([N+](=O)[O-])c1 [ENTACAPONE] | 1 | 0 | 1 | 0 | 0 | 1 | 0 | 1 | 0 | 0 | 0 | 0 | 5 | 1 |  |  |  |  |  |  |  |
| NC1=NCC2c3ccccc3Cc3ccccc3N12 (configuration not stated) [EPINASTINE] |  |  |  |  |  |  |  |  |  |  |  |  |  |  | 0 | 0 | 0 | 0 | 0 | 0 | HepSE_cirrhosis (Hepatotoxicity [7]; Liver): 0; HepSE_bilirubinemia (Hepatotoxicity [8]; Liver): 0; HepSE_hepatic necrosis (Hepatotoxicity [9]; Liver): 0; HepSE_hepatomegaly (Hepatotoxicity [10]; Liver): 0; HepSE_elevated liver function tests (Hepatotoxicity [11]; Liver): 0; HepSE_liver fatty (Hepatotoxicity [12]; Liver): 0; HepSE_Combined Scores (Hepatotoxicity [13]; Liver): 0; HepSE_cholelithiasis (Hepatotoxicity [14]; Liver): 0 |
| CNC[C@H](O)c1ccc(O)c(O)c1 [EPINEPHRINE] |  |  |  |  |  |  |  |  |  |  |  |  |  |  | 0 | 0 | 0 | 0 | 0 | 0 | HepSE_cirrhosis (Hepatotoxicity [7]; Liver): 0; HepSE_bilirubinemia (Hepatotoxicity [8]; Liver): 0; HepSE_hepatic necrosis (Hepatotoxicity [9]; Liver): 0; HepSE_hepatomegaly (Hepatotoxicity [10]; Liver): 0; HepSE_elevated liver function tests (Hepatotoxicity [11]; Liver): 0; HepSE_liver fatty (Hepatotoxicity [12]; Liver): 0; HepSE_Combined Scores (Hepatotoxicity [13]; Liver): 0; HepSE_cholelithiasis (Hepatotoxicity [14]; Liver): 0 |
| COC(=O)[C@@H]1CC2=CC(=O)CC[C@]2(C)[C@@]23O[C@@H]2C[C@@]2(C)[C@@H](CC[C@@]24CCC(=O)O4)[C@H]13 [EPLERENONE] | 0 | 0 | 1 | 0 | 0 | 0 | 0 | 0 | 0 | 0 | 0 | 0 | 1 | 0 |  |  |  |  |  |  |  |

Source: ChEMBL document CHEMBL1909294, “Translating clinical findings into knowledge in drug safety evaluation--drug induced liver injury prediction system (DILIps)” (PLoS Comput Biol, 2011)
